Results on two compounds are retold here after ChEMBL document CHEMBL5727676, “Bromodomain inhibitors” (2020).

Test [1] concerns the target T1, Bromodomain-containing protein 4 (Homo sapiens, UniProt O60885). Put plainly: (§1) TR-FRET Assay: Compound dilution series were prepared in DMSO via an approximately 3-fold serial dilution. Compound dilutions were added directly into white, low-volume assay plates (Perkin Elmer Proxiplate 384 Plus#6008280) using a Labcyte Echo in conjunction with Labcyte Access and Thermo Multidrop CombinL robotics. Compounds were then suspended in eight microliters (μL) of assay buffer (20 mM Sodium Phosphate, pH 6.0, 50 mM NaCl, 1 mM Ethylenediaminetetraacetic acid disodium salt dihydrate, 0.01% Triton X-100, 1 mM DL-Dithiothreitol) containing His-tagged bromodomain, Europium-conjugated anti-His antibody (Invitrogen PV5596) and Alexa-647-conjugated probe.The final concentration of 1× assay mixture contained 2% DMSO, 12 nM His tagged BRD4 (BDI_K57-E168) and 100 nM probe or 4 nM His tagged BRD4 (BDII_E352-M457) and 30 nM probe, and 1 nM Europium-conjugated anti-His-tag antibody, and compound concentrations in the range of: 49.02 μM-0.61 nM or 0.98 μM-0.15 nM.After a one-hour equilibration at room temperature, TR-FRET ratios were determined using an Envision multilabel plate reader (Ex 340, […]).

For test [2], the target named is T1, Bromodomain-containing protein 4. The test is described as §1. This is another data set of the same source.

As for `Cc1cccc(C)c1Oc1ccc(C(C)(O)CC(C)C)cc1-c1cn(C)c(=O)c2[nH]c(C(=O)NC(C)(C)C)cc12` (centres undefined), the Ki came out at 6.6 nM in test [1] and 6690 nM in test [2].

On to `Cc1cc(F)cc(Cl)c1Oc1ccc(C(C)(C)O)cc1-c1cn(C)c(=O)c2[nH]c(C(=O)NC3(C)CC3(F)F)cc12` (centres undefined), for which the Ki in test [1] is 7.4 nM; in test [2], 1770 nM.
